ChEMBL document CHEMBL3885861, “Open TG-GATES”

Species on record: Rattus norvegicus
Assay: Open TG-GATES - Regimen: Daily Repeat
Type: toxicity, organism-based, Sprague-Dawley
Set-up: regimen Daily Repeat, gender Male, age 6 weeks
Conditions: in vivo, po, 1000 mg/kg, route gavage, dose level High; for APTT / Bas / Eos / Fbg / Hb / Ht / Lym / MCH / MCHC / MCV / Mono / Neu / PT / Plat / RBC / Ret / WBC: tissue Blood; for KIDNEY_L / KIDNEY_R / KIDNEY_TOTAL: tissue Kidney; for LIVER: tissue Liver; for A/G / ALP / ALT / AST / BUN / CRE / Ca / Cl / DBIL / GLC / IP / K / LDH / Na / PL / RALB / TBIL / TC / TG / TP / gamma-GTP: tissue Plasma

Work on `O=C(N[C@H](CO)[C@H](O)c1ccc([N+](=O)[O-])cc1)C(Cl)Cl` [CHLORAMPHENICOL] yielded a TERMINAL_BW (72 h, time 3 day) of 243.9 g, an APTT (72 h, time 3 day) of 17 s and a Bas (72 h, time 3 day) of 0%. For the same compound, the Eos (72 h, time 3 day) was 1.4%, the Fbg (72 h, time 3 day) was 313.4 mg/dL and the Hb (72 h, time 3 day) was 13.3 g/dL. For the same compound, the Ht (72 h, time 3 day) was 40.7%, the Lym (72 h, time 3 day) was 87.8% and the MCH (72 h, time 3 day) was 21.1 pg. For the same compound, the MCHC (72 h, time 3 day) was 32.7%, the MCV (72 h, time 3 day) was 64.6 fL and the Mono (72 h, time 3 day) was 3.2%. It also gave a Neu (72 h, time 3 day) of 7%, a PT (72 h, time 3 day) of 14.6 s and a Plat (72 h, time 3 day) of 109.7 x10_4/uL. For the same compound, the RBC (72 h, time 3 day) was 630.6 x10_4/ul, the Ret (72 h, time 3 day) was 2.3% and the WBC (72 h, time 3 day) was 63.9 x10_2/uL. For the same compound, the KIDNEY_L (72 h, time 3 day) was 1.1 g, the KIDNEY_R (72 h, time 3 day) was 1.1 g and the KIDNEY_TOTAL (72 h, time 3 day) was 2.2 g. The LIVER (72 h, time 3 day) was 13.2 g, the A/G (72 h, time 3 day) was 0.9 and the ALP (72 h, time 3 day) was 1258.6 IU/L. It also gave an ALT (72 h, time 3 day) of 41 IU/L, an AST (72 h, time 3 day) of 75 IU/L and a BUN (72 h, time 3 day) of 16.6 mg/dL. For the same compound, the CRE (72 h, time 3 day) was 0.2 mg/dL, the Ca (72 h, time 3 day) was 10.5 mg/dL and the Cl (72 h, time 3 day) was 106.8 meq/L. The DBIL (72 h, time 3 day) was 0.012 mg/dL, the GLC (72 h, time 3 day) was 168.4 mg/dL and the IP (72 h, time 3 day) was 6.2 mg/dL. For the same compound, the K (72 h, time 3 day) was 4.3 meq/L, the LDH (72 h, time 3 day) was 85.6 IU/L and the Na (72 h, time 3 day) was 141.6 meq/L. The PL (72 h, time 3 day) was 138.6 mg/dL, the RALB (72 h, time 3 day) was 2.4 g/dL and the TBIL (72 h, time 3 day) was 0.05 mg/dL. It also gave a TC (72 h, time 3 day) of 72.6 mg/dL, a TG (72 h, time 3 day) of 82.6 mg/dL and a TP (72 h, time 3 day) of 5.2 g/dL. For the same compound, the gamma-GTP (72 h, time 3 day) was 1 IU/L, the TERMINAL_BW ([…], time 7 day) was 275.6 g and the TERMINAL_BW ([…], time 14 day) was 327.3 g. It also gave a TERMINAL_BW ([…], time 28 day) of 381.6 g, an APTT ([…], time 7 day) of 16.3 s and a Bas ([…], time 7 day) of 0%. The Eos ([…], time 7 day) was 1%, the Fbg ([…], time 7 day) was 339.2 mg/dL and the Hb ([…], time 7 day) was 13 g/dL. For the same compound, the Ht ([…], time 7 day) was 40%, the Lym ([…], time 7 day) was 84.4% and the MCH ([…], time 7 day) was 20.6 pg. It also gave an MCHC ([…], time 7 day) of 32.5%, an MCV ([…], time 7 day) of 63.3 fL and a Mono ([…], time 7 day) of 2.4%. It also gave a Neu ([…], time 7 day) of 11.4%, a PT ([…], time 7 day) of 14.8 s and a Plat ([…], time 7 day) of 126.1 x10_4/uL. The RBC ([…], time 7 day) was 631.6 x10_4/ul, the Ret ([…], time 7 day) was 4.9% and the WBC ([…], time 7 day) was 79.2 x10_2/uL. The APTT ([…], time 14 day) was 15.6 s, the Bas ([…], time 14 day) was 0% and the Eos ([…], time 14 day) was 1%. The Fbg ([…], time 14 day) was 325.6 mg/dL, the Hb ([…], time 14 day) was 13.9 g/dL and the Ht ([…], time 14 day) was 42.9%. It also gave a Lym ([…], time 14 day) of 87.2%, an MCH ([…], time 14 day) of 20.6 pg and an MCHC ([…], time 14 day) of 32.3%. For the same compound, the MCV ([…], time 14 day) was 63.6 fL, the Mono ([…], time 14 day) was 2.8% and the Neu ([…], time 14 day) was 8.4%. For the same compound, the PT ([…], time 14 day) was 14.9 s, the Plat ([…], time 14 day) was 116.9 x10_4/uL and the RBC ([…], time 14 day) was 675.6 x10_4/ul. The Ret ([…], time 14 day) was 4.4%, the WBC ([…], time 14 day) was 86.3 x10_2/uL and the APTT ([…], time 28 day) was 16.3 s. It also gave a Bas ([…], time 28 day) of 0%, an Eos ([…], time 28 day) of 1.2% and a Fbg ([…], time 28 day) of 303 mg/dL. It also gave a Hb ([…], time 28 day) of 14.6 g/dL, a Ht ([…], time 28 day) of 42.8% and a Lym ([…], time 28 day) of 87.4%. It also gave an MCH ([…], time 28 day) of 19.6 pg, an MCHC ([…], time 28 day) of 34.1% and an MCV ([…], time 28 day) of 57.3 fL. The Mono ([…], time 28 day) was 1.6%, the Neu ([…], time 28 day) was 9.2% and the PT ([…], time 28 day) was 15.5 s. It also gave a Plat ([…], time 28 day) of 106.7 x10_4/uL, an RBC ([…], time 28 day) of 746.4 x10_4/ul and a Ret ([…], time 28 day) of 1.7%. The WBC ([…], time 28 day) was 78.6 x10_2/uL, the KIDNEY_L ([…], time 7 day) was 1.2 g and the KIDNEY_R ([…], time 7 day) was 1.2 g. For the same compound, the KIDNEY_TOTAL ([…], time 7 day) was 2.4 g, the KIDNEY_L ([…], time 14 day) was 1.4 g and the KIDNEY_R ([…], time 14 day) was 1.3 g. For the same compound, the KIDNEY_TOTAL ([…], time 14 day) was 2.7 g, the KIDNEY_L ([…], time 28 day) was 1.6 g and the KIDNEY_R ([…], time 28 day) was 1.6 g. For the same compound, the KIDNEY_TOTAL ([…], time 28 day) was 3.2 g, the LIVER ([…], time 7 day) was 15.2 g and the LIVER ([…], time 14 day) was 18.1 g. For the same compound, the LIVER ([…], time 28 day) was 20.9 g, the A/G ([…], time 7 day) was 0.9 and the ALP ([…], time 7 day) was 1416.6 IU/L. The ALT ([…], time 7 day) was 50.6 IU/L, the AST ([…], time 7 day) was 77.4 IU/L and the BUN ([…], time 7 day) was 15.8 mg/dL. For the same compound, the CRE ([…], time 7 day) was 0.2 mg/dL, the Ca ([…], time 7 day) was 11.2 mg/dL and the Cl ([…], time 7 day) was 105.4 meq/L. The DBIL ([…], time 7 day) was 0.012 mg/dL, the GLC ([…], time 7 day) was 179.4 mg/dL and the IP ([…], time 7 day) was 8.8 mg/dL. It also gave a K ([…], time 7 day) of 4.1 meq/L, an LDH ([…], time 7 day) of 92.8 IU/L and a Na ([…], time 7 day) of 143.6 meq/L. The PL ([…], time 7 day) was 136.2 mg/dL, the RALB ([…], time 7 day) was 2.7 g/dL and the TBIL ([…], time 7 day) was 0.052 mg/dL. For the same compound, the TC ([…], time 7 day) was 67.8 mg/dL, the TG ([…], time 7 day) was 71.8 mg/dL and the TP ([…], time 7 day) was 5.8 g/dL. The gamma-GTP ([…], time 7 day) was 1 IU/L, the A/G ([…], time 14 day) was 0.9 and the ALP ([…], time 14 day) was 1573.2 IU/L. For the same compound, the ALT ([…], time 14 day) was 50.6 IU/L, the AST ([…], time 14 day) was 72.6 IU/L and the BUN ([…], time 14 day) was 17.8 mg/dL. For the same compound, the CRE ([…], time 14 day) was 0.2 mg/dL, the Ca ([…], time 14 day) was 11 mg/dL and the Cl ([…], time 14 day) was 105.6 meq/L. For the same compound, the DBIL ([…], time 14 day) was 0.016 mg/dL, the GLC ([…], time 14 day) was 179.2 mg/dL and the IP ([…], time 14 day) was 7.2 mg/dL. For the same compound, the K ([…], time 14 day) was 4.1 meq/L, the LDH ([…], time 14 day) was 53.6 IU/L and the Na ([…], time 14 day) was 144 meq/L. The PL ([…], time 14 day) was 149.8 mg/dL, the RALB ([…], time 14 day) was 2.7 g/dL and the TBIL ([…], time 14 day) was 0.046 mg/dL. The TC ([…], time 14 day) was 71.4 mg/dL, the TG ([…], time 14 day) was 79.2 mg/dL and the TP ([…], time 14 day) was 5.7 g/dL. The gamma-GTP ([…], time 14 day) was 1 IU/L, the A/G ([…], time 28 day) was 0.9 and the ALP ([…], time 28 day) was 936.8 IU/L. The ALT ([…], time 28 day) was 43.6 IU/L, the AST ([…], time 28 day) was 72.8 IU/L and the BUN ([…], time 28 day) was 17 mg/dL. It also gave a CRE ([…], time 28 day) of 0.2 mg/dL, a Ca ([…], time 28 day) of 10.4 mg/dL and a Cl ([…], time 28 day) of 105.8 meq/L. The DBIL ([…], time 28 day) was 0.016 mg/dL, the GLC ([…], time 28 day) was 164.4 mg/dL and the IP ([…], time 28 day) was 6.3 mg/dL. The K ([…], time 28 day) was 3.6 meq/L, the LDH ([…], time 28 day) was 53.4 IU/L and the Na ([…], time 28 day) was 145.2 meq/L. The PL ([…], time 28 day) was 131.6 mg/dL, the RALB ([…], time 28 day) was 2.6 g/dL and the TBIL ([…], time 28 day) was 0.06 mg/dL. The TC ([…], time 28 day) was 57.8 mg/dL, the TG ([…], time 28 day) was 74.8 mg/dL and the TP ([…], time 28 day) was 5.6 g/dL. For the same compound, the gamma-GTP ([…], time 28 day) was 1 IU/L.
